The NIST ThermoML archive (doi:10.1016/j.fluid.2014.12.023)
Several values for one entry are separate records, joined by “and”; a condition that tells them apart may be missing. Equal values may be shown once.

Conditions: Liquid, Transpiration method

Fc1ccccc1I [1,2-fluoroiodobenzene]
Conditions	vapor or sublimation pressure
282.8 K	0.0397 kPa
285.7 K	0.0483 kPa and 0.0493 kPa
288.7 K	0.0638 kPa
289.5 K	0.0686 kPa
292.5 K	0.0843 kPa
296.4 K	0.1111 kPa
298.4 K	0.1269 kPa
301.4 K	0.1633 kPa
303.4 K	0.1819 kPa
306.4 K	0.2238 kPa
308.4 K	0.25 kPa
311.3 K	0.2939 kPa
313.4 K	0.3289 kPa
316.4 K	0.4201 kPa
317.5 K	0.4348 kPa
318.4 K	0.4686 kPa
321.4 K	0.5638 kPa
323.5 K	0.6216 kPa
326.5 K	0.7364 kPa
327.5 K	0.7616 kPa
328.6 K	0.8217 kPa

Fc1cccc(I)c1 [1,3-fluoroiodobenzene]
Conditions	vapor or sublimation pressure
275.2 K	0.0326 kPa
280.4 K	0.0474 kPa
283.4 K	0.0571 kPa
283.8 K	0.058 kPa
284.9 K	0.0625 kPa
286.8 K	0.0746 kPa
288.2 K	0.082 kPa
288.7 K	0.0861 kPa and 0.0802 kPa
290.7 K	0.0986 kPa
292.6 K	0.1122 kPa
293.2 K	0.1154 kPa
293.6 K	0.1137 kPa
296.7 K	0.1436 kPa
297.6 K	0.1513 kPa and 0.1481 kPa
300.6 K	0.184 kPa
302.5 K	0.2085 kPa
305.6 K	0.256 kPa
307.5 K	0.2849 kPa
307.6 K	0.2932 kPa and 0.3026 kPa
310.6 K	0.364 kPa and 0.3464 kPa
312.5 K	0.4094 kPa and 0.3873 kPa
315.6 K	0.4642 kPa
315.7 K	0.4836 kPa
317.6 K	0.516 kPa
317.7 K	0.5427 kPa
319.6 K	0.5968 kPa

Fc1ccc(I)cc1 [1,4-fluoroiodobenzene]
Conditions	vapor or sublimation pressure
276.5 K	0.0329 kPa
279.7 K	0.04219 kPa
283.9 K	0.05918 kPa and 0.0586 kPa
286.5 K	0.07144 kPa
289.4 K	0.08532 kPa and 0.08615 kPa
293.3 K	0.1163 kPa
298.1 K	0.1638 kPa
303 K	0.2198 kPa
308.1 K	0.3015 kPa
312.9 K	0.4121 kPa
317.9 K	0.547 kPa

Fc1ccccc1Br [1-bromo-2-fluorobenzene]
Conditions	vapor or sublimation pressure [kPa]
278.5 K	0.1247
279.4 K	0.1385
280.6 K	0.1422
282.3 K	0.1684
282.5 K	0.1604
283.4 K	0.1716
284.5 K	0.1843
285.5 K	0.2081
288.7 K	0.262
291.7 K	0.3115
294.5 K	0.3837
297.5 K	0.4636
300.3 K	0.5578
303.5 K	0.6675
306.6 K	0.8
309.5 K	0.944
312.6 K	1.141
315.4 K	1.338
318.6 K	1.61
321.4 K	1.858
324.3 K	2.174

Fc1cccc(Br)c1 [1-bromo-3-fluorobenzene]
Conditions	vapor or sublimation pressure [kPa]
280.8 K	0.2278
283.4 K	0.2912
283.7 K	0.2875
284.7 K	0.3109
286.6 K	0.3559
287.7 K	0.3711
288.7 K	0.403
289.4 K	0.4245
292.5 K	0.5168
293.4 K	0.5476
295.3 K	0.6202
298.4 K	0.7441
299.7 K	0.8106
301.5 K	0.8784
302.4 K	0.9483
305.8 K	1.125
308.5 K	1.312
311.6 K	1.541
314.6 K	1.819
317.6 K	2.138

Fc1ccc(Br)cc1 [1-bromo-4-fluorobenzene]
Conditions	vapor or sublimation pressure [kPa]
278.2 K	0.1662
281.3 K	0.2043
283.5 K	0.2384
284.4 K	0.2446
286.5 K	0.285
287.3 K	0.2956
289.4 K	0.3532
290.2 K	0.3668
292.4 K	0.4087
295.4 K	0.5144
296.1 K	0.5283
298.3 K	0.6028
300.1 K	0.6822
301.4 K	0.7138
304.4 K	0.8461
307.6 K	0.9874
310.5 K	1.204
313.4 K	1.41
316.4 K	1.673

Fc1ccccc1Cl [1-chloro-2-fluorobenzene]
Conditions	vapor or sublimation pressure
277.5 K	0.3411 kPa
280.6 K	0.4191 kPa and 0.4312 kPa
283.5 K	0.5098 kPa
283.6 K	0.5041 kPa
286.4 K	0.6241 kPa
286.6 K	0.6176 kPa
289.5 K	0.7705 kPa
289.6 K	0.7749 kPa
292.4 K	0.8974 kPa
295.7 K	1.093 kPa
298.5 K	1.268 kPa
301.3 K	1.521 kPa
304.1 K	1.795 kPa
307.4 K	2.169 kPa
310.1 K	2.497 kPa
313.6 K	3.121 kPa
316.3 K	3.551 kPa
319.2 K	4.226 kPa

Fc1cccc(Cl)c1 [1-chloro-3-fluorobenzene]
Conditions	vapor or sublimation pressure [kPa]
275.8 K	0.4412
280.1 K	0.5829
283.1 K	0.7061
286 K	0.8315
288.9 K	1.031
292 K	1.237
295.1 K	1.491
298.1 K	1.767
301 K	2.096
304.1 K	2.469
307.3 K	2.963
310.3 K	3.568
313.3 K	4.106
316.5 K	4.927
319.5 K	5.737

Fc1ccc(Cl)cc1 [1-chloro-4-fluorobenzene]
Conditions	vapor or sublimation pressure [kPa]
277.6 K	0.6008
280.6 K	0.7421
283.2 K	0.8729
286.2 K	1.057
289.3 K	1.259
292.4 K	1.527
295.7 K	1.87
296.9 K	1.982
299.8 K	2.405
302.7 K	2.858
305.7 K	3.285
308.4 K	3.855
311.6 K	4.575
314.3 K	5.275
317.6 K	6.059
320.4 K	7.146
323.5 K	8.51
